Peptide text beside a SMILES is read from it. * marks the point of attachment. Cbz = O=C(OCc1ccccc1)*; CH2F = FC*

We go through two molecules from patent US11834698B2, “Process for determining enzyme activity in a cell by activity-based reporter gene technology (ABRGT)” (INDIAN INSTITUTE OF SCIENCE EDUCATION AND RESEARCH, priority 2018, dated 2023).

Test [1] concerns the target T1, caspase-7 GFPspark (Homo sapiens, UniProt P55210).
T1 construct: host or cells: MCF-7, HEK-293
T1 sequence (P55210 24-198 limits assumed): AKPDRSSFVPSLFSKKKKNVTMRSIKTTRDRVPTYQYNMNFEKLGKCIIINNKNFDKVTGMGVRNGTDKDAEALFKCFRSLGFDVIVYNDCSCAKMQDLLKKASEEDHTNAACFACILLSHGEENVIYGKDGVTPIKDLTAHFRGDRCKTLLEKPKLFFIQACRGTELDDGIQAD
T1 sequence (P55210 207-303 limits assumed): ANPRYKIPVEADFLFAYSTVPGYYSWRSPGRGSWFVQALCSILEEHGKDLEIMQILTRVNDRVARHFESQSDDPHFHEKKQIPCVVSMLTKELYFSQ
Put plainly: AbRGT FRET imaging / acceptor photobleaching, caspase-7 GFPspark in HEK-293 cells. In kind it is cell-based. As to the method:
FIGS. 14A and 14B depict specific detection of caspase-7 GFPspark in HEK-293 cells. Caspase-7 GFPspark (1 μg) transfected HEK-293 cells were treated with STS (1 μM) for 10 h and labelled with the probe 1 (1 μM) for 2 h. […] The acceptor photobleaching experiment was performed to confirm the FRET signal as described previously. Bar graph representing a rise in GFP intensity in ROI after rhodamine photobleaching was 87 a.u. as compared to the unbleached background, i.e., 13 a.u. FRET efficiency was calculated to be 33±2%.
Plasmids and transient transfection: GFPspark tagged plasmids; caspase-3 GFPspark tag (Cat: HG10050-ACG), caspase-7 GFPspark tag (HG10049-ACG), caspase-8 GFPspark (HG10078-ACG), caspase-9 GFPspark (HG11151-ACG) and cathepsin B GFPspark (HG10483-ACG) were procured from Sino Biological. For transfection, cells were seeded in a 6-well plate at a density of 0.4 million cells/well. […] 24 h post-transfection, cells were visualized under the GFP filter for GFPspark expression under fluorescence microscope at 10× magnification.
Labelling of active caspases in apoptotic cells with FABP: After 24 h of transfection, cells were treated with STS (1 μM) drug or TRAIL (1 μg/ml) for apoptotic induction and incubated for 2, 4, 6 and 8 h at 37° C. in a humidified atmosphere of 5% CO2/95% air. […] Slides were then imaged for GFP, FRET and rhodamine fluorescence signals under confocal microscopy. […]
Fluorescence imaging studies, FRET procedure: Images were collected on Zeiss LSM710 confocal microscope with 25 mW argon laser using Zen10 software. […] Images were collected in the three channels; GFP channel, argon laser tuned at 488 nm with 2% laser intensity and fluorescence emission was collected in emission range of 490-550 nm; rhodamine channel, argon laser tuned to 561 nm laser with 2% laser intensity and fluorescence emission was collected in range 550-650 nm and FRET channel with excitation laser of GFPSPARK channel and emission range of rhodamine channel. […]

Test [2] deals with T2, caspase-8 GFPspark (Homo sapiens, UniProt Q14790).
T2 construct: host or cells: HEK-293
T2 sequence (Q14790 217-374 limits assumed): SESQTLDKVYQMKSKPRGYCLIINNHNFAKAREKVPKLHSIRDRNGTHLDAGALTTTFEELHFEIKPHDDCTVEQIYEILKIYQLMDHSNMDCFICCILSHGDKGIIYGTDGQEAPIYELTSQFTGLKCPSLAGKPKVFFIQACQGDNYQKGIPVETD
T2 sequence (Q14790 385-479 limits assumed): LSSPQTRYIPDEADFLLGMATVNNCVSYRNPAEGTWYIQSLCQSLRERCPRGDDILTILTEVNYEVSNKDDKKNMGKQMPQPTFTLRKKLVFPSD
Put plainly: AbRGT FRET imaging / acceptor photobleaching, caspase-8 GFPspark in HEK-293 cells. In kind it is cell-based. As to the method:
FIG. 15 depicts confocal images of MCF-7 cells in GFP, FRET and Rh channel Caspase-7 GFPspark transfected MCF-7 cells were treated with STS (1 μM) for 6 h and labelled (a) (i) with probe 1 (1 μM) probe. Cells were pre-treated with (a) (ii) Z-VAD-FMK (50 μM) or (a) (iii) Q-VD-OPh (50 μM) pan-caspase inhibitors 1 h before the probe labelling. Caspase-9 GFPspark transfected MCF-7 cells were treated with STS (1 μM) for 4 h and labelled (b) (i) with probe 1 (1 μM) probe. Cells were pre-treated with (b) (ii) Z-VAD-FMK (50 μM) 1 h before probe labelling. Caspase-8 GFPspark overexpressing HEK-293 cells were treated with TRAIL (1 μg/ml) for 5 h and labelled (c) (i) with the probe 1. Cells were pre-treated with (c) (ii) Z-VAD-FMK (50 μM) 1 h before probe labelling.
FIG. 18 depicts specific detection of caspase-8 GFPspark in HEK-293 cells. Casp-8 GFPspark (1 μg) transfected HEK-293 cells were treated with TRAIL ([…]) for 6 h and labelled with the probe 1 (1 μM) for 2 h. Cells were washed, fixed and the fluorescence signal was collected in GFP, FRET and Rh channels. The acceptor photobleaching experiment was performed to confirm the FRET signal as described previously. The bar graph representing a rise in GFP intensity in ROI after rhodamine photobleaching was 82 a.u. as compared to the unbleached background, i.e., 11 a.u. The FRET efficiency was calculated to be 31±1%.
Plasmids and transient transfection: GFPspark tagged plasmids; caspase-3 GFPspark tag (Cat: HG10050-ACG), caspase-7 GFPspark tag (HG10049-ACG), caspase-8 GFPspark (HG10078-ACG), caspase-9 GFPspark (HG11151-ACG) and cathepsin B GFPspark (HG10483-ACG) were procured from Sino Biological. For transfection, cells were seeded in a 6-well plate at a density of 0.4 million cells/well. At 60-70% confluency, cells were transiently transfected for 24 h at 37° C. with 1 μg of the GFPspark tagged plasmid DNA construct mixed with 5 μL of Lipofectamine 2000 (Invitrogen) according to the manufacturer's instructions. 24 h post-transfection, cells were visualized under the GFP filter for GFPspark expression under fluorescence microscope at 10× magnification.
Labelling of active caspases in apoptotic cells with FABP: After 24 h of transfection, cells were treated with STS (1 μM) drug or TRAIL (1 μg/ml) for apoptotic induction and incubated for 2, 4, 6 and 8 h at 37° C. in a humidified atmosphere of 5% CO2/95% air. Cells were gently scraped off from the surface at the end of apoptotic induction and centrifuged at 3000 rpm for 5 min. […] Slides were then imaged for GFP, FRET and rhodamine fluorescence signals under confocal microscopy. […]
Fluorescence imaging studies, FRET procedure: Images were collected on Zeiss LSM710 confocal microscope with 25 mW argon laser using Zen10 software. […]

[3] abbreviates: HEK-293, TRAIL, Z-VAD-FMK pre-treatment.
Where [4] appears, read: HEK-293, STS 1 μM 10 h, probe 1 μM 2 h.
Where [5] appears, read: HEK-293, TRAIL 6 h, probe 1 μM 2 h.

On to `COC(=O)C[C@H](NC(=O)[C@H](C)NC(=O)[C@@H](NC(=O)OCc1ccccc1)C(C)C)C(=O)CF` [Z-VAD-FMK] (Cbz-Val-Ala-Asp(OMe)-CH2F), for which, in test [1] (HEK-293, inhibitor 50 μM pre-treatment, STS 10 h), the “effect of inhibitor on FRET signal” value is “abolished”. In test [2] (setting [3]), the “effect of inhibitor on signal in FRET channel” value is “abolished” and the “effect of inhibitor on signal in Rh channel” value is “abolished”.
On to “Rhodamine-VAD-fluoromethyl ketone [probe 1]”, for which the “calculated FRET efficiency” value was 33±2% in test [1] (setting [4]) and 31±1% in test [2] (setting [5]). For the same molecule, the “rise in GFP intensity in ROI after rhodamine photobleaching” value is 87 a.u in test [1] (setting [4]) and 82 a.u in test [2] (setting [5]).
